{
  "source": "patent US20130005720A1",
  "about": "“PHARMACEUTICAL COMPOSITION FOR TREATING CANCER AND APPLICATIONS THEREOF” (Academia Sinica, priority 2011, published 2013)",
  "key": {"[1]": {"system": "d(TTAGGG)4 (HT24), single strand sequence derived from telomere of human chromosome", "experiment": "CD spectra: induction of G4 structure formation of HT24 under a salt-deficient condition", "format": "binding", "conditions": "20 μM HT24, salt-deficient condition, room temperature, HT24:BMVC-8C3O 1:0 to 1:10", "experimental": "(§1) All oligonucleotides were purchased from Bio Basic Inc. and used without further purification, including the single strand sequence derived from telomere of human chromosome, d(TTAGGG)4 (HT24) (SEQ ID NO: 1). Solutions of 10 mM Tris-HCl (pH 7.5) and its mixed solutions with KCl were mixed with each DNA sample and heated to 95° C. for 10 min first, cooled slowly to room temperature, and then stored for 48 h at 4° C. before use.\nFirst, circular dichroism spectroscopy (CD spectra) was used to examine whether BMVC-8C3O could induce the formation of G4 structure of human telomere, HT24, under a salt-deficient condition (Chang et al., 2007; Bugaut et al., 2008; Giraldo et al., 1994). […]\nJ-815 spectropolarimeter (Jasco, Japan) with a 2 nm bandwidth at a 50 nm/min scan speed and a 0.2 nm step resolution was used to obtain CD spectra, and the following data was provided as an average of 10 scan results. The CD spectra were measured by monitoring the G4 structures under N2 over the range of 210 nm to 350 nm, and the thermal melting curves, as a function of temperature, were obtained by monitoring the CD intensity at 265 nm. Three independently scans were recorded for each sample. The melting temperature (Tm) was measured from the first differentiation of the melting curve. […]"}, "[2]": {"system": "d(TTAGGG)4 (HT24), G4 structure of human telomere", "experiment": "CD and 1H NMR spectra: conversion of G4 structure conformation of HT24 in K+ or Na+ solution", "format": "binding", "conditions": "for CD spectral change before and after annealing: 5 μM HT24, 1 eq. compound; for formation of G4 structures and conversion of G4 structures of human telomeres from nonparallel to parallel forms: K+ solution, summary statement", "experimental": "as §1\nIt is well-known that the linear parallel G4 structures, such as a propeller form, give a positive band at around 265 nm and a negative band at around 240 nm, while the anti-parallel G4 structures, such as a basket or chair form, show two positive bands at around 295 nm and 240 nm and a negative band at around 265 nm. In addition, the hybrid type G4 structures (3+1, including 3 parallel and 1 anti-parallel G4 structures) give a positive CD band at around 290 nm and a positive shoulder band at around 265 nm. The anti-parallel and hybrid type are both so-called “non-parallel” G4 structures. These spectral features are mainly attributed to the specific guanine stacking in various G4 structures.\n(§2) J-815 spectropolarimeter (Jasco, Japan) with a 2 nm bandwidth at a 50 nm/min scan speed and a 0.2 nm step resolution was used to obtain CD spectra, and the following data was provided as an average of 10 scan results. The CD spectra were measured by monitoring the G4 structures under N2 over the range of 210 nm to 350 nm, and the thermal melting curves, as a function of temperature, were obtained by monitoring the CD intensity at 265 nm. Three independently scans were recorded for each sample. The melting temperature (Tm) was measured from the first differentiation of the melting curve.\n5 μM HT24 and 1 eq. BMVC-8C3O (the equivalence ratio of HT24:BMVC-8C30 is 1:1) were used to detect whether BMVC-8C3O could convert the G4 structure conformation of HT24 from non-parallel to parallel.\nThe CD spectra of the HT24 and its complexes with 1 eq. BMVC-8C3O mixed in a 150 mM K^+ solution or in a 150 mM Na^+ solution were measured right after the mixing step under room temperature, as shown in FIGS. 2A and 2B (+BMVC-8C3O×1). Another set of spectra were obtained after these samples were annealed, i.e. heated at 95° C., and then gradually cooled down to room temperature (+BMVC-8C3O×1 anneal). […] These spectral features are consistent with the spectral changes of d[G3(T2AG3)3] (HT21) in K^+ or Na^+ solution upon the addition of 40% PEG (see Xue et al., 2007). That is to say, the peak at 265 nm (parallel G4 structure) increases and the peak at 290 nm (non-parallel G4 structure) decreases. This is, BMVC-8C3O and 40% PEG can converse the G4 structures from the non-parallel to the parallel.\nBMVC-8C3O at 37° C., as a function of time.\nIn addition, 0.1 mM HT24 was mixed with 5 eq. BMVC-8C3O and dissolved in a H2O/D2O (90%/10%) solution containing 10 mM tris-HCl (pH 7.5) and 150 mM KCl to prepare samples for NMR (control sample was without BMVC-8C3O). Then the imino protons in the chemical shift range of 9-14 ppm were measured on a Bruker AVIII 800 MHz spectrometer using a pulsed-gradient spin-echo sequence with a selective refocusing pulse, and the chemical shift was measured relative to a D2O solution of DSS as an external reference. […] The NMR spectra show significant changes after adding 5 eq.\nWhen 1 eq. […] However, when the concentration of BMVC-8C3O is increasing, the necessity of the annealing step decreases. For example, 5 eq. BMVC-8C3O induces spectra changes of the complex of HT24 and BMVC-8C3O in 150 mM K^+ solution at 37° C. (converting from non-parallel to parallel), and the annealing step is not necessary (see FIG. 2C)."}, "[3]": {"system": "d(TTAGGG)4 (HT24), G4 structure of human telomere", "experiment": "CD thermal melting curve (265 nm) of HT24 G4 structure", "format": "binding", "experimental": "as §1, §2\nThe BMVC-8C3O of the present invention can not only induce the formation of G4 structures, but also stabilize G4 structures. FIGS. 3A and 3B show the CD spectra of HT24 and its complex with 5 eq. BMVC-8C3O in 5 mM K^+ solution at 25° C. and 95° C., respectively. […] BMVC-8C3O in 5 mM or 150 mM K^+ solution at 265 nm, as a function graph of temperature. After adding 5 eq. BMVC-8C3O at 37° C."}, "CL1-0 lung cancer cells": {"system": "CL1-0 lung cancer cells", "experiment": "Long-term cell proliferation curve, CL1-0 cancer cells", "format": "cell-based", "conditions": "long-term treated with 1.0 μM", "experimental": "(§3) CL1-0 lung cancer cells and MRC-5 normal human lung fibroblasts were used in the following experiments, wherein CL1-0 cells were cultured in RPMI-1640 medium containing 10% FBS (fetal bovine serum) and 1% antibiotics (including penicillin and streptomycin), and MRC-5 cells were cultured in MEM medium containing 10% FBS and 1% antibiotics.\n(§4) When these cells were subcultured, culture medium containing 1.0 μM BMVC-8C3O (1% DMSO for the control) was used to separate these cells into 5×10^5 cells/petri dish having a diameter of 6 cm. After 2 or 3 days, these cells were trypsinized and counted, and subcultured again with the same density and method. Cells were subcultured repeatedly until the total cell number was less than 5×10^5.\n(§5) FIGS. 4A and 4B show the cell proliferation curves of CL1-0 cancer cells and MRC-5 normal cells that long-term treated with 1.0 μM BMVC-8C3O. From FIG. 4A, it is obvious that the proliferation of CL1-0 cancer cells is slowed from around day 10, and stopped at around day 20."}, "[4]": {"system": "MRC-5 normal human lung fibroblasts", "experiment": "Long-term cell proliferation curve, MRC-5 normal cells", "format": "cell-based", "conditions": "long-term treated with 1.0 μM", "experimental": "as §3, §4, §5"}},
  "data": [
    {"smiles": "C[n+]1ccc(C=Cc2ccc3c(c2)c2cc(C=Cc4cc[n+](C)cc4)ccc2n3CCOCCOCCOCC[N+]2(C)CCCCC2)cc1.[I-].[I-].[I-]", "note": "[BMVC-8C3O, 3,6-Bis(1-methyl-4-vinylpyridium iodide)-9-(1-(1-methyl-piperidinium iodide)-3,6,9-trioxaundecane) carbazole]", "values": [
      {"measurement": "induction of G4 structure formation of HT24 (CD spectra)", "setting": "[1]", "value": "can induce G4 formation under a salt-deficient condition"},
      {"measurement": "CD spectral change before and after annealing", "setting": "[2]; 150 mM K+ solution", "value": "significant spectral changes"},
      {"measurement": "CD spectral change before and after annealing", "setting": "[2]; 150 mM Na+ solution", "value": "only CD intensity changes are observed"},
      {"measurement": "structural change of HT24 (imino proton 1H NMR spectra)", "setting": "[2]; 0.1 mM HT24, 5 eq. compound, 150 mM KCl, 2 h and 12 h after adding", "value": "can induce the structural change of HT24"},
      {"measurement": "conversion of G4 structure conformation of HT24 from non-parallel to parallel (CD spectra)", "setting": "[2]; 5 eq. compound, 150 mM K+ solution, 37° C., without annealing", "value": "can convert the conformation of G4 structures from non-parallel to parallel"},
      {"measurement": "formation of G4 structures and conversion of G4 structures of human telomeres from nonparallel to parallel forms", "setting": "[2]", "value": "can induce the formation of G4 structures and convert the G4 structures of human telomeres from nonparallel to parallel forms"},
      {"measurement": "enhancement of melting temperature (Tm) of HT24", "setting": "[3]; 5 eq. compound, 37° C. 24 hours, 5 mM K+ solution", "value": "about 50 °C"},
      {"measurement": "melting temperature (Tm) of HT24 complex", "setting": "[3]; 5 eq. compound, 37° C. 24 hours, 5 mM K+ solution, HT24 alone approximately 41° C.", "value": "> 90", "unit": "°C"},
      {"measurement": "day at which proliferation of CL1-0 cancer cells is stopped", "setting": "CL1-0 lung cancer cells", "value": "~20", "unit": "days"},
      {"measurement": "day from which proliferation of CL1-0 cancer cells is slowed", "setting": "CL1-0 lung cancer cells", "value": "~10", "unit": "days"},
      {"measurement": "effect on proliferation of MRC-5 normal cells", "setting": "[4]", "value": "does not significantly affect"}
    ]},
    {"smiles": "C[n+]1ccc(C=Cc2ccc3[nH]c4ccc(C=Cc5cc[n+](C)cc5)cc4c3c2)cc1.[I-].[I-]", "note": "[BMVC, 3,6-bis(1-methyl-4-vinylpyridinium)carbazole diiodide, reference compound]", "values": [
      {"measurement": "formation of G4 structures and conversion of G4 structures of human telomeres from nonparallel to parallel forms", "setting": "[2]", "value": "cannot be achieved"},
      {"measurement": "increase of the melting temperature of the G4 structures of human telomeres", "setting": "[3]; summary statement, conditions not given at the place", "value": "approximately 20 °C"}
    ]}
  ]
}
